The values that follow come from PubChem BioAssay AID248 (DTP/NCI, 2004).

In this experiment the test system is L1210 leukemia ip in BDF1 mice, survival T/C. Description: NCI In Vivo Anticancer Drug Screen. Data for tumor model L1210 Leukemia (intraperitoneal) in B6D2F1 (BDF1) mice. The settings on record: endpoint: mean survival time, higher = longer survival. The gist of the method:
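Antitumor effect is assessed in tumor-bearing animals. Survival in the compound arm is compared with a vehicle-dosed control arm and expressed as their quotient.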

Setting [1] is: dose: 100.0 mg/kg/injection, schedule: Q01DX009 (ip), vehicle: Klucel (hydroxypropylcellulose) (HPC).
The mark [2] stands for this setting: dose: 200.0 mg/kg/injection, schedule: Q01DX009 (ip), vehicle: Klucel (hydroxypropylcellulose) (HPC).
Setting [3] is: dose: 400.0 mg/kg/injection, schedule: Q01DX009 (ip), vehicle: Klucel (hydroxypropylcellulose) (HPC).
The mark [4] stands for this setting: dose: 100.0 mg/kg/injection, schedule: Q04DX002 (ip), vehicle: Klucel (hydroxypropylcellulose) (HPC).
The mark [5] stands for this setting: dose: 200.0 mg/kg/injection, schedule: Q04DX002 (ip), vehicle: Klucel (hydroxypropylcellulose) (HPC).
Where [6] appears, read: dose: 400.0 mg/kg/injection, schedule: Q04DX002 (ip), vehicle: Klucel (hydroxypropylcellulose) (HPC).
Setting [7] is: dose: 100.0 mg/kg/injection, schedule: Q04DX003 (ip), vehicle: saline with Tween-80.
[8] abbreviates: dose: 200.0 mg/kg/injection, schedule: Q04DX003 (ip), vehicle: saline with Tween-80.
Where [9] appears, read: dose: 100.0 mg/kg/injection, schedule: Q01DX001 (ip), vehicle: saline.
Where [10] appears, read: dose: 200.0 mg/kg/injection, schedule: Q01DX001 (ip), vehicle: saline.
Setting [11] is: dose: 400.0 mg/kg/injection, schedule: Q01DX001 (ip), vehicle: saline.

“And” between values parts separate entries of the source, which are not always exact repeats. Equal values may be shown once. Toxic doses and inconclusive results are not listed.

For the compound `CCS(=O)(=O)c1ncc2cnccn12`, the T/C reads like this: (dose: 50.0 mg/kg/injection, schedule: Q01DX009 (ip), vehicle: water) 98 % of control; (dose: 100.0 mg/kg/injection, schedule: Q01DX009 (ip), vehicle: water) 98 % of control and 101 % of control; (dose: 100.0 mg/kg/injection, schedule: Q04DX003 (ip), vehicle: water) 93 % of control; (dose: 200.0 mg/kg/injection, schedule: Q01DX009 (ip), vehicle: water) 105 % of control and 110 % of control; (dose: 200.0 mg/kg/injection, schedule: Q04DX003 (ip), vehicle: water) 95 % of control.

Consider `C1CCN(NC2=NCCO2)CC1`, for which, where the note is “dose: 100.0 mg/kg/injection, schedule: Q01DX009 (ip), vehicle: saline”, the T/C is 95 % of control.

Consider `O=C1CCC(OC(=O)c2ccccc2)CCN1` (stereo unspecified), for which the T/C by setting is: (dose: 100.0 mg/kg/injection, schedule: Q01DX001 (ip), vehicle: acetone) 102 % of control; (dose: 200.0 mg/kg/injection, schedule: Q01DX001 (ip), vehicle: acetone) 96 % of control; (dose: 400.0 mg/kg/injection, schedule: Q01DX001 (ip), vehicle: acetone) 94 % of control.

For the compound `CC1(C)CN(Cc2ccc(Cl)cc2)C1=O`, the T/C reads like this: (dose: 44.0 mg/kg/injection, schedule: Q01DX001 (ip), vehicle: other) 97 % of control; (dose: 44.0 mg/kg/injection, schedule: Q01DX009 (ip), vehicle: saline with Tween-80) 90 % of control; (dose: 44.0 mg/kg/injection, schedule: Q04DX003 (ip), vehicle: other) 96 % of control; (dose: 50.0 mg/kg/injection, schedule: Q04DX002 (ip), vehicle: other) 154 % of control; (dose: 66.0 mg/kg/injection, schedule: Q01DX001 (ip), vehicle: other) 100 % of control; (dose: 66.0 mg/kg/injection, schedule: Q01DX009 (ip), vehicle: saline with Tween-80) 89 % of control. In addition, the T/C is 101 % of control (dose: 66.0 mg/kg/injection, schedule: Q04DX003 (ip), vehicle: other); 96 % of control (dose: 100.0 mg/kg/injection, schedule: Q01DX001 (ip), vehicle: other); 91 % of control (dose: 100.0 mg/kg/injection, schedule: Q01DX009 (ip), vehicle: saline with Tween-80); 92 % of control and 113 % of control (dose: 100.0 mg/kg/injection, schedule: Q04DX002 (ip), vehicle: other); 100 % of control (dose: 100.0 mg/kg/injection, schedule: Q04DX003 (ip), vehicle: other); 98 % of control (dose: 150.0 mg/kg/injection, schedule: Q01DX001 (ip), vehicle: other). Moreover, the T/C (dose: 150.0 mg/kg/injection, schedule: Q01DX009 (ip), vehicle: saline with Tween-80) is 92 % of control; the T/C (dose: 150.0 mg/kg/injection, schedule: Q04DX003 (ip), vehicle: other) was 103 % of control; the T/C (dose: 225.0 mg/kg/injection, schedule: Q01DX001 (ip), vehicle: other) is 100 % of control; the T/C (dose: 225.0 mg/kg/injection, schedule: Q01DX009 (ip), vehicle: saline with Tween-80) was 93 % of control; the T/C (dose: 225.0 mg/kg/injection, schedule: Q04DX003 (ip), vehicle: other) was 96 % of control; the T/C (dose: 400.0 mg/kg/injection, schedule: Q04DX002 (ip), vehicle: other) was 95 % of control and 103 % of control.

Take `Cc1cc(O)c(N=Nc2ccccc2)cc1C`: the T/C runs as follows: under setting [1], 102 % of control; (dose: 100.0 mg/kg/injection, schedule: Q04DX003 (ip), vehicle: Klucel (hydroxypropylcellulose) (HPC)) 101 % of control; under setting [2], 96 % of control; (dose: 200.0 mg/kg/injection, schedule: Q04DX003 (ip), vehicle: Klucel (hydroxypropylcellulose) (HPC)) 96 % of control; under setting [3], 96 % of control; (dose: 400.0 mg/kg/injection, schedule: Q04DX003 (ip), vehicle: Klucel (hydroxypropylcellulose) (HPC)) 92 % of control.

For the compound `CCOc1c(OC)cc(/C=C/C(=O)NC2CC2)cc1OC`, the T/C was 88 % of control (dose: 25.0 mg/kg/injection, schedule: Q01DX009 (ip), vehicle: Klucel (hydroxypropylcellulose) (HPC)); 101 % of control and 88 % of control under setting [1].

`CSc1nc(C(Cl)Cl)cnc1Cl`: the T/C by setting is: under setting [4], 102 % of control; under setting [5], 91 % of control; under setting [6], 105 % of control.

Turning to `O=c1cc(-c2ccccc2)nc2c(Cl)cc(Cl)cn12`, the T/C runs as follows: (dose: 100.0 mg/kg/injection, schedule: Q04DX003 (ip), vehicle: acetone) 95 % of control; (dose: 200.0 mg/kg/injection, schedule: Q04DX003 (ip), vehicle: acetone) 104 % of control; (dose: 400.0 mg/kg/injection, schedule: Q04DX003 (ip), vehicle: acetone) 96 % of control.

Turning to `O=C(C[n+]1cccc(Cl)c1)c1ccccc1`, the T/C is 113 % of control (dose: 0.5 mg/kg/injection, schedule: Q04DX003 (ip), vehicle: saline); 105 % of control (dose: 1.0 mg/kg/injection, schedule: Q04DX003 (ip), vehicle: saline); 102 % of control (dose: 2.0 mg/kg/injection, schedule: Q04DX003 (ip), vehicle: saline).

Regarding `O=S(=O)(F)c1ccc(Cl)cc1`, the T/C reads like this: under setting [7], 101 % of control; under setting [8], 89 % of control.

As to `C1CCC2CCCCC2C1` (stereo unspecified), the T/C reads like this: (dose: 3.13 mg/kg/injection, schedule: Q04DX002 (ip), vehicle: saline with Tween-80) 100 % of control; (dose: 6.25 mg/kg/injection, schedule: Q04DX002 (ip), vehicle: saline with Tween-80) 103 % of control; (dose: 12.5 mg/kg/injection, schedule: Q04DX002 (ip), vehicle: saline with Tween-80) 103 % of control; (dose: 50.0 mg/kg/injection, schedule: Q04DX002 (ip), vehicle: saline) 98 % of control; (dose: 100.0 mg/kg/injection, schedule: Q04DX002 (ip), vehicle: saline) 91 % of control; (dose: 200.0 mg/kg/injection, schedule: Q04DX002 (ip), vehicle: saline) 91 % of control. In addition, the T/C (dose: 400.0 mg/kg/injection, schedule: Q04DX002 (ip), vehicle: saline) was 91 % of control.

Turning to `c1ccc(NC2=NCCCN2)cc1`, the T/C by setting is: (dose: 12.5 mg/kg/injection, schedule: Q01DX001 (ip), vehicle: saline with Tween-80) 102 % of control; (dose: 25.0 mg/kg/injection, schedule: Q01DX001 (ip), vehicle: saline with Tween-80) 97 % of control; (dose: 50.0 mg/kg/injection, schedule: Q01DX001 (ip), vehicle: saline with Tween-80) 91 % of control.

With `CC12CCC3C(CCC4C(C)(C(=O)O)CCCC34C)(CC1=O)C2` (stereo unspecified), the T/C is, setting by setting: (dose: 100.0 mg/kg/injection, schedule: Q01DX001 (ip), vehicle: saline with Tween-80) 92 % of control; (dose: 200.0 mg/kg/injection, schedule: Q01DX001 (ip), vehicle: saline with Tween-80) 95 % of control.

Consider `CC(=O)Oc1cccc([N+](=O)[O-])c1`, for which the T/C is, setting by setting: under setting [4], 107 % of control; under setting [5], 100 % of control; under setting [6], 92 % of control.

With `N#CC(C#N)=C1C(=O)c2ccccc2-c2ccccc21`, the T/C is, setting by setting: under setting [9], 107 % of control; under setting [10], 109 % of control; under setting [11], 105 % of control.

For `CC1CCC(NC2=NCCO2)C1` (stereo unspecified), the T/C under setting [7] was 96 % of control; the T/C under setting [8] is 93 % of control; the T/C (dose: 400.0 mg/kg/injection, schedule: Q04DX003 (ip), vehicle: saline with Tween-80) is 93 % of control.

Take `CS(=O)(=O)C(Cl)(Cl)S(C)(=O)=O`: the T/C was 116 % of control (dose: 6.25 mg/kg/injection, schedule: Q01DX009 (ip), vehicle: saline with Tween-80); 102 % of control (dose: 12.5 mg/kg/injection, schedule: Q01DX009 (ip), vehicle: saline with Tween-80); 104 % of control (dose: 25.0 mg/kg/injection, schedule: Q01DX009 (ip), vehicle: saline with Tween-80).

As to `Cc1ccc(CNC(=O)C2CCCCC2C(=O)O)cc1` (stereo unspecified), the T/C was 100 % of control under setting [1], 96 % of control under setting [2] and 93 % of control under setting [3].

Consider `COc1cc2c(cc1OC)C13CCN4CC5=CCOC6CC(=O)N2C1C6C5CC43O` (stereo unspecified), for which the T/C was 89 % of control under setting [9], 86 % of control under setting [10] and 89 % of control under setting [11].
